Experimental data published in patent publication US11167059B2, “Compositions with reactive ingredients, and wound dressings, apparatuses, and methods” (KCI Licensing, Inc., priority 2010, dated 2021).

How the values were obtained:
Assay type in all cases: cell-based
[1] = system: Staphylococcus aureus ATCC 10832; assay: Minimum Inhibitory Concentration (MIC), S. aureus ATCC 10832; conditions: % w/v Ca(OCl)2 in water
C. alb. = assay: zone of inhibition (ZOI), foam discs saturated with solution, C. alb.; conditions: 8 mm foam disc saturated with solution
Method: (§1) Referring now to FIG. 17, the experiments described above for FIG. 14 were also performed with additional foams, one foam in which 1 gram of Calcium hypochlorite salt was infused (D100, shown as left column for each cycle), and one foam in which 2 grams of Calcium hypochlorite salt was dispersed (D200, shown as right column for each cycle). […] As discussed additionally below, the minimum concentration is significant because testing identified concentrations of hypochlorite-ion as low as 0.5-0.7 mM to have effective antibacterial and antimicrobial properties. Additional testing was performed to measure the zone of inhibition (ZOI) and Log Reduction of microbes for various samples of released aqueous solutions having various concentrations of hypochlorite ion, as listed in Tables 2 and 3. Table 2 lists ZOI and Log reduction data for a single cycle measured at hold times (exposure duration) of 30 seconds and 5 minutes of bacterial exposure to solution. Table 3 lists ZOI and Log reduction data for multiple cycles (each cycle including introduction of hypochlorite solution, and removal of solution prior to beginning next cycle). In the ZOI experimentation, foam discs having a diameter of 8 millimeters (mm) and a height of 5 mm were each saturated with hypochlorite-ion solution as indicated. Table 3 also lists the initial microbe count in log form (10^X, where X is listed in Table 2), log reduction in microbe count, and ZOI in mm. For the data of Table 3, the initial concentration (1×) of hypochlorite ion in solution was 5.7 mM of hypochlorite ion, which corresponds to 0.041% w/v of Ca(OCl)^2. In the Log reduction experimentation, the microbes were exposed to the respective concentration of solution for 30 seconds per cycle. […] The bold entries in Table 3 are indicative of substantially all microbes being killed. In the biofilm eradication cycles listed in Table 6 below, probes were cultured with microbes and incubated to permit formation of a biofilm on the probe. The probe was then exposed to solutions having various concentrations of Calcium hypochlorite solution for multiple cycles, with each cycle including exposure of the probe to solution for a duration of 5 minutes.

[2] = system: Pseudomonas aeruginosa ATCC 27853; assay: Log reduction, multiple cycles, P. aeruginosa; conditions: 30 seconds per cycle
Method: as §1

[3] = system: Pseudomonas aeruginosa ATCC 27853; assay: Minimum Inhibitory Concentration (MIC), P. aeruginosa; conditions: % w/v Ca(OCl)2 in water
MRSA = assay: Log reduction, single cycle, MRSA; conditions: for ΔLog - MRSA 30 sec.: 30 sec. exposure; for ΔLog - MRSA 5 min.: 5 min. exposure
Method: as §1

[4] = Sample Dilution 1x (5.7 mM hypochlorite ion, 0.041% w/v Ca(OCl)2)
[5] = Sample Dilution 2x of 5.7 mM hypochlorite ion
[6] = Sample Dilution 4x of 5.7 mM hypochlorite ion
[7] = Sample Dilution 8x of 5.7 mM hypochlorite ion (lowest concentration, 0.7 mM)

In the case of hypochlorite ion [OCl^− Solutions], the “Minimum Inhibitory Concentration (MIC) 1 Cycle” value ([1]; 1 Cycle) is reported as <0.005% w/v, the “Minimum Inhibitory Concentration (MIC) 3 Cycles” value ([1]; 3 Cycles) is reported as <0.005% w/v and the “Minimum Inhibitory Concentration (MIC) 5 Cycles” value ([1]; 5 Cycles) is reported as <0.005% w/v. The “ZOI, D in mm C. alb.” value (C. alb.; 0.8 mM HOCl/OCl−) was 15.0 mm, the “ZOI, D in mm C. alb.” value (C. alb.; 1.9 mM HOCl/OCl−) was 24.3 mm and the “ZOI, D in mm C. alb.” value (C. alb.; 3.1 mM HOCl/OCl−) was 22.0 mm. The “ZOI, D in mm C. alb.” value (C. alb.; 4.0 mM HOCl/OCl−) was 34.3 mm, the “ZOI, D in mm C. alb.” value (C. alb.; 10.7 mM HOCl/OCl−) was 45.7 mm and the “ZOI, D in mm C. alb.” value (C. alb.; 15.7 mM HOCl/OCl−) was 44.3 mm. The “Log Reduction Pseudomonas aeruginosa ATCC 27853 1 Cycle” value [2, 4] was −0.16, the “Log Reduction Pseudomonas aeruginosa ATCC 27853 3 Cycles” value [2, 4] was 5.87 and the “Log Reduction Pseudomonas aeruginosa ATCC 27853 5 Cycles” value [2, 4] was 5.83. For the same substance, the “Log Reduction Pseudomonas aeruginosa ATCC 27853 1 Cycle” value [2, 5] was −0.98, the “Log Reduction Pseudomonas aeruginosa ATCC 27853 3 Cycles” value [2, 5] was 5.87 and the “Log Reduction Pseudomonas aeruginosa ATCC 27853 5 Cycles” value [2, 5] was 5.83. The “Log Reduction Pseudomonas aeruginosa ATCC 27853 1 Cycle” value [2, 6] was −0.48, the “Log Reduction Pseudomonas aeruginosa ATCC 27853 3 Cycles” value [2, 6] was 3.92 and the “Log Reduction Pseudomonas aeruginosa ATCC 27853 5 Cycles” value [2, 6] was 5.83. For the same substance, the “Log Reduction Pseudomonas aeruginosa ATCC 27853 1 Cycle” value [2, 7] was −1.11, the “Log Reduction Pseudomonas aeruginosa ATCC 27853 3 Cycles” value [2, 7] was 1.26 and the “Log Reduction Pseudomonas aeruginosa ATCC 27853 5 Cycles” value [2, 7] was 5.39. The “Minimum Inhibitory Concentration (MIC) 1 Cycle” value ([3]; 1 Cycle) was <0.005% w/v, the “Minimum Inhibitory Concentration (MIC) 3 Cycles” value ([3]; 3 Cycles) was <0.005% w/v and the “Minimum Inhibitory Concentration (MIC) 5 Cycles” value ([3]; 5 Cycles) was <0.005% w/v. The “ΔLog - MRSA 30 sec.” value (MRSA; 0.8 mM HOCl/OCl−) was 2.96, the “ΔLog - MRSA 5 min.” value (MRSA; 0.8 mM HOCl/OCl−) was 2.99 and the “ΔLog - MRSA 30 sec.” value (MRSA; 1.9 mM HOCl/OCl−) was 2.93. For the same substance, the “ΔLog - MRSA 5 min.” value (MRSA; 1.9 mM HOCl/OCl−) was 4.09, the “ΔLog - MRSA 30 sec.” value (MRSA; 3.1 mM HOCl/OCl−) was 3.55 and the “ΔLog - MRSA 5 min.” value (MRSA; 3.1 mM HOCl/OCl−) was >7.13. The “ΔLog - MRSA 30 sec.” value (MRSA; 4.0 mM HOCl/OCl−) was 5.52, the “ΔLog - MRSA 5 min.” value (MRSA; 4.0 mM HOCl/OCl−) was >7.13 and the “ΔLog - MRSA 30 sec.” value (MRSA; 10.7 mM HOCl/OCl−) was >6.93. For the same substance, the “ΔLog - MRSA 5 min.” value (MRSA; 10.7 mM HOCl/OCl−) was >7.13, the “ΔLog - MRSA 30 sec.” value (MRSA; 15.7 mM HOCl/OCl−) was >6.93 and the “ΔLog - MRSA 5 min.” value (MRSA; 15.7 mM HOCl/OCl−) was >7.13.
